Results from patent US9511057B2, “Methods for treating denervation-induced muscle atrophy” (THE BOARD OF TRUSTEES OF THE LELAND STANFORD JUNIOR …, priority 2013, dated 2016).
“And” between values parts separate entries of the source, which are not always exact repeats. Equal entries are not always repeated.

Experiment: Body weight and innervated muscle weight under rapamycin treatment (Table 2)
Assay type: in vivo, mouse
Parameters: key to Body weight before / Body weight after: body weight in g; Gastroc weight, innervated muscle: unit not given here
Settings: for Gastroc weight, innervated muscle / TA weight, innervated muscle / sol (soleus) weight, innervated muscle / Body weight after / Body weight before: individual mice; for TA weight, innervated muscle, MEAN / sol (soleus) weight, innervated muscle, MEAN / Body weight after, MEAN / Body weight before, MEAN: mean of 6 mice; for Body weight after, MEAN / Body weight before, MEAN: in g
Protocol: Rapamycin (LC Laboratories; Woburn, Mass.) was initially dissolved in 100% ethanol, stored at −20° C., and further diluted in an aqueous solution of 5.2% Tween 80 and 5.2% PEG 400 (final ethanol concentration, 2%) immediately before use (Wendel et al., 2004). Denervated NSA mice (male, 40 g) were injected immediately with rapamycin i.p. at 1.5 mg/kg, or 6 mg/kg body weight, every other day. Control mice were injected with vehicle with the same amount of ethanol solvent with rapamycin group (6 mg·kg). Muscle samples were collected 15 days later. Muscle wet weight was recorded immediately. For immunostaining, muscles were frozen in OCT in dry ice-cold isopentane. For RNA and protein extraction, muscles were quickly frozen in liquid nitrogen. Student t-test was used to evaluate the statistical significance. P<0.05 was considered as statistically significant. Each of these experiments were performed such that there were 3 to 6 separate experimental mice (for each genotype, dose, and time-point) and 3-6 separate control mice per experiment.

[1] = Inn + 1.5 (rapamycin 1.5 mg/kg i.p. every other day, 15 days), in g (unit assumed)
[2] = Inn + 1.5 (rapamycin 1.5 mg/kg), in g (unit assumed)
[3] = Inn + 6 (rapamycin 6 mg/kg i.p. every other day, 15 days)
[4] = Inn + 6 (rapamycin 6 mg/kg), in g (unit assumed)
[5] = rapamycin at the doses used (1.5 or 6 mg/kg i.p. every other day)

In the case of `CO[C@H]1C[C@@H]2CC[C@@H](C)[C@@](O)(O2)C(=O)C(=O)N2CCCC[C@H]2C(=O)O[C@H]([C@H](C)C[C@@H]2CC[C@@H](O)[C@H](OC)C2)CC(=O)[C@H](C)/C=C(\C)[C@@H](O)[C@@H](OC)C(=O)[C@H](C)C[C@H](C)/C=C/C=C/C=C/1C` [rapamycin, Rapamycin], the “Gastroc weight, innervated muscle” value (Inn + 1.5 (rapamycin 1.5 mg/kg i.p. every other day, 15 days)) is reported as 0.1984 and 0.2043 and 0.2062 and 167.3 and 196.7, the “TA weight, innervated muscle” value [1] is reported as 0.0719 and 0.0697 and 0.068 and 0.0898 and 0.0795 and 0.0597 and the “sol (soleus) weight, innervated muscle” value [1] is reported as 0.0114 and 0.0095 and 0.0099 and 0.0106 and 0.0102 and 0.0075. The “TA weight, innervated muscle, MEAN” value [2] was 0.0731, the “sol (soleus) weight, innervated muscle, MEAN” value [2] was 0.00985 and the “Gastroc weight, innervated muscle” value [3] was 0.2084 and 0.2168 and 0.1798 and 217.7 and 230.5. The “sol (soleus) weight, innervated muscle” value [3] was 0.0102 and 0.0116 and 0.0106 (3×) and 0.0115, the “TA weight, innervated muscle” value (Inn + 6 (rapamycin 6 mg/kg i.p. every other day, 15 days), in g (unit assumed)) was 0.0686 and 0.0751 and 0.0645 and 0.078 and 0.0713 and 0.0759 and the “TA weight, innervated muscle, MEAN” value [4] was 0.07223. For the same molecule, the “sol (soleus) weight, innervated muscle, MEAN” value [4] was 0.01085, the Body weight after (Rapa − 1.5, after) was 45 and 46 and 42 (2×) and 40 and 39 and the “Body weight after, MEAN” value (Rapa − 1.5, after) was 42.33. For the same molecule, the Body weight before (Rapa − 1.5, before) was 41 g (2×) and 46 g and 44 g and 42 g (2×), the “Body weight before, MEAN” value (Rapa − 1.5, before) was 42.67 and the Body weight after (Rapa − 6, after, in g (unit assumed)) was 46 and 38 and 41 and 42 and 40 and 39. The “Body weight after, MEAN” value (Rapa − 6, after) was 41, the Body weight before (Rapa − 6, before, in g (unit assumed)) was 39 and 42 and 55 and 43 and 41 and 44 and the “Body weight before, MEAN” value (Rapa − 6, before) was 44. For the same molecule, the “influence on body weight” value [5] was “did not influence”, the “influence on innervated muscle weight” value [5] was “does not change” and the “influence on innervated muscle weight” value (rapamycin at the doses used (1.5 or 6 mg/kg i.p. every other day), listed as Rapamycin) was “did not influence”.
